Reference: US20240239790A1, “7-Morpholino-1,6-Naphthyridin-5-yl Derivatives and Pharmaceutical Compositions Thereof Useful as DNA-PK Inhibitor” (adMare Therapeutics Society, priority 2021, published 2024)
Like-named read-outs stand apart in the source and are kept apart here.

Key:
[1] = test system: pDNA-PK induction in HCT116 tumour spheroids; test: Multicellular tumour spheroid + radiation, pDNA-PK (ser2056) inhibition, immunohistochemical endpoint, HCT116; assay type: cell-based; details: Homo sapiens, 20 Gy, 20% O2
Outline: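 HCT116 spheroids (~0.5 mm) in MEM/10% FBS, 20% O2, 37° C., pre-incubated 1 h with compound (10 or 5 μM down to 3.5 nM), irradiated 20 Gy, then 2 h further with compound. Cryosections immunostained for pDNA-PK ser2056; EC50 is concentration halving radiation-induced pDNA-PK.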

[2] = Microsomal Stability Assay, mouse liver microsomes; assay type: in vitro ADME; details: for microsomal CLint at 0.1 uM: male, CD-1, pH 7.4, mouse liver microsomes 0.1 mg/mL, 0.1 uM compound; for Microsomal Stability Mouse % rem. 60 min: mouse liver microsomes
Method: (§1) Samples were then mixed and centrifuged. Supernatants were used for HPLC-MS/MS analysis. […] Peak areas corresponding to the test compound were recorded.

[3] = Hepatocyte Stability Assay, mouse hepatocytes; assay type: in vitro ADME; details: for hepatocyte CLint at 1 uM: male, CD-1, cryopreserved hepatocytes, pH 7.3, mouse hepatocytes 0.7 million cells per mL, 1 uM compound; for Hepatocyte Stability Mouse % rem. 120 min: mouse hepatocytes
Method: Cryopreserved mouse hepatocytes were obtained from a pool of 10 or more male CD-1 mice. Cryopreserved human hepatocytes were obtained from a pool of 10 or more donors of mixed gender. Final hepatocyte density was 0.7 million viable cells per mL and test compound concentration was 1 uM with a maximum of 0.01% DMSO. Cryopreserved hepatocytes were thawed, washed, and resuspended in Krebs-Heinslet buffer (pH 7.3). The reaction was initiated by adding the test compound into cell suspension and incubated for 0, […], 1, 1.5, and 2 h, respectively, at 37° C./5% C02. The reaction was stopped by adding acetonitrile into the incubation mixture. Samples were then mixed, transferred completely to another 96-well plate, and centrifuged. Supernatants were used for HPLC-MS/MS analysis. […] Peak areas corresponding to the test compound were recorded.

[4] = Microsomal Stability Assay, human liver microsomes; assay type: in vitro ADME; details: for microsomal CLint at 0.1 uM: both sexes, pH 7.4, human liver microsomes 0.1 mg/mL, 0.1 uM compound; for Microsomal Stability Human % rem. 60 min: human liver microsomes
Method: as §1

[5] = HCT-116, 2 hours following radiation, Example 9 Study 2, read-out: Spheroid Cell line: HCT116 Immunohistochemical endpoint pDNA-PK inhibition EC50
[6] = HCT-116, Spheroid, Cell Line: HCT115 (so in the source), 2 hours following radiation, Example 7, read-out: EC50, Immunohistochemical endpoint, pDNA-PK inhibition
[7] = HCT-116, 2 h, spheroids, Example 8, read-out: Cell line: HCT116 Immunohistochemical endpoint pDNA-PK inhibition EC50

| SMILES | EC50 [1, 5] [nM] | EC50 [1, 6] [nM] | microsomal CLint at 0.1 uM [2] [µL/min/mg] | Microsomal Stability Mouse % rem. 60 min [2] | hepatocyte CLint at 1 uM [3] [µL/min/1e6 cells] | Hepatocyte Stability Mouse % rem. 120 min [3] | microsomal CLint at 0.1 uM [4] [µL/min/mg] | Microsomal Stability Human % rem. 60 min [4] | EC50 [1, 7] [nM] |
| --- | --- | --- | --- | --- | --- | --- | --- | --- | --- |
| CN1CCN(CCOc2cnc(N[C@H]3CC[C@@H](Oc4nc(N5CCOCC5)cc5ncccc45)CC3)nc2)CC1 [Compound 69, 5-(2-(4-Methylpiperazin-1-yl)ethoxy)-N-((1s,4s)-4-((7-morpholino-1,6-naphthyridin-5-yl)oxy)cyclohexyl)pyrimidin-2-amine] | 1000 to 10000 | 1000 to 10000 | > 116 | F (% remaining = 25-50%) | < 8.2 | H (% remaining = 75-100%) | < 116 | G (% remaining = 50-75%) | – |
| CN(C)C(=O)COc1cnc(N[C@H]2CC[C@@H](Oc3nc(N4CCOCC4)cc4ncc(NS(C)(=O)=O)cc34)CC2)nc1 [Compound 182, N,N-dimethyl-2-((2-(((1s,4s)-4-((3-(methylsulfonamido)-7-morpholino-1,6-naphthyridin-5-yl)oxy)cyclohexyl)amino)pyrimidin-5-yl)oxy)acetamide] | 10 to 500 | 10 to 500 | < 116 | G (% remaining = 50-75%) | < 8.2 | H (% remaining = 75-100%) | < 116 | G (% remaining = 50-75%) | – |
| CN(C)C(=O)Cn1ccc(C(=O)N[C@H]2CC[C@@H](Oc3nc(N4CCOCC4)cc4ncccc34)CC2)c1 [Compound 141, 1-(2-(dimethylamino)-2-oxoethyl)-N-((1s,4s)-4-((7-morpholino-1,6-naphthyridin-5-yl)oxy)cyclohexyl)-1H-pyrrole-3-carboxamide] | – | 10 to 500 | < 116 | G (% remaining = 50-75%) | < 8.2 | G (% remaining = 50-75%) | < 116 | G (% remaining = 50-75%) | – |
| CC(=O)NCCOc1cnc(N[C@H]2CC[C@@H](Oc3nc(N4CCOCC4)cc4ncccc34)CC2)nc1 [Compound 66] | 1000 to 10000 | 1000 to 10000 | < 116 | G (% remaining = 50-75%) | < 8.2 | F (% remaining = 25-50%) | > 116 | F (% remaining = 25-50%) | – |
| O=C(COc1cnc(N[C@H]2CC[C@@H](Oc3nc(N4CCOCC4)cc4ncccc34)CC2)nc1)N1CCNCC1 [Compound 63, 2-((2-(((1s,4s)-4-((7-Morpholino-1,6-naphthyridin-5-yl)oxy)cyclohexyl)amino)pyrimidin-5-yl)oxy)-1-(piperazin-1-yl)ethan-1-one] | 1000 to 10000 | 1000 to 10000 | > 116 | F (% remaining = 25-50%) | < 8.2 | H (% remaining = 75-100%) | < 116 | H (% remaining = 75-100%) | – |
| CN(C)CCOc1cnc(N[C@H]2CC[C@@H](Oc3nc(N4CCOCC4)cc4ncccc34)CC2)nc1 [Compound 64, 5-(2-(Dimethylamino)ethoxy)-N-((1s,4s)-4-((7-morpholino-1,6-naphthyridin-5-yl)oxy)cyclohexyl)pyrimidin-2-amine] | 10 to 500 | 10 to 500 | < 116 | G (% remaining = 50-75%) | < 8.2 | G (% remaining = 50-75%) | < 116 | H (% remaining = 75-100%) | 10 to 500 |
| CN(C)C(=O)Cn1c(=O)n(C2CCOCC2)c2nc(N[C@H]3CC[C@@H](Oc4nc(N5CCOCC5)cc5ncccc45)CC3)ncc21 [Compound 97, N,N-Dimethyl-2-(2-(((1s,4s)-4-((7-morpholino-1,6-naphthyridin-5-yl)oxy)cyclohexyl)amino)-8-oxo-9-(tetrahydro-2H-pyran-4-yl)-8,9-dihydro-7H-purin-7-yl)acetamide] | 10 to 500 | 10 to 500 | < 116 | F (% remaining = 25-50%) | < 8.2 | H (% remaining = 75-100%) | > 116 | E (% remaining = 0-25%) | – |
| CN(C)C(=O)Cn1ccc2nc(N[C@H]3CC[C@@H](Oc4nc(N5CCOCC5)cc5ncccc45)CC3)ncc21 [Compound 86, N,N-Dimethyl-2-(2-(((1s,4s)-4-((7-morpholino-1,6-naphthyridin-5-yl)oxy)cyclohexyl)amino)-5H-pyrrolo[3,2-d]pyrimidin-5-yl)acetamide] | 10 to 500 | 10 to 500 | < 116 | G (% remaining = 50-75%) | < 8.2 | H (% remaining = 75-100%) | < 116 | G (% remaining = 50-75%) | – |
| O=C(COc1cnc(N[C@H]2CC[C@@H](Oc3nc(N4CCOCC4)cc4ncccc34)CC2)nc1)N1CCOCC1 [Compound 61, 1-Morpholino-2-((2-(((1s,4s)-4-((7-morpholino-1,6-naphthyridin-5-yl)oxy)cyclohexyl)amino)pyrimidin-5-yl)oxy)ethan-1-one] | 10 to 500 | 10 to 500 | < 116 | H (% remaining = 75-100%) | < 8.2 | G (% remaining = 50-75%) | > 116 | F (% remaining = 25-50%) | – |
| CNC(=O)COc1cnc(N[C@H]2CC[C@@H](Oc3nc(N4CCOCC4)cc4ncccc34)CC2)nc1 [Compound 71, N-Methyl-2-((2-(((1s,4s)-4-((7-morpholino-1,6-naphthyridin-5-yl)oxy)cyclohexyl)amino)pyrimidin-5-yl)oxy)acetamide] | 10 to 500 | 10 to 500 | < 116 | G (% remaining = 50-75%) | < 8.2 | G (% remaining = 50-75%) | < 116 | F (% remaining = 25-50%) | – |
| O=C(O)c1cnc2cc(N3CCOCC3)nc(O[C@H]3CC[C@@H](n4ccnc4)CC3)c2c1 [Compound 165, 5-(((1s,4s)-4-(1H-imidazol-1-yl)cyclohexyl)oxy)-7-morpholino-1,6-naphthyridine-3-carboxylic acid] | 10000 to 100000 | 10000 to 100000 | < 116 | H (% remaining = 75-100%) | < 8.2 | H (% remaining = 75-100%) | – | – | 10000 to 100000 |
